Molecular target: T1, Cdc7 (BEV coexpressed huCDC7/DBF4) (Homo sapiens, UniProt O00311)
T1 construct: made in house; host or cells: BEV (baculovirus expression vector) co-expression; insect cells are implied but no cell line is named
Assay: Cdc7 enzyme inhibition assay ([33P]ATP, biotinylated peptide substrate, FlashPlate)
Assay type: biochemical
Conditions: Table 3; enzyme inhibition data (Ki)
Method: Cdc7 (BEV coexpressed huCDC7/DBF4) is prepared internally. Cdc7 assays are conducted as follows with final concentrations as listed. […] Reactions are quenched after 1 hr by the addition of 90 μL stop buffer (50 mM EDTA, 2M NaCl). […] (Ki) for exemplary compounds.

T1 sequence (O00311 whole entry): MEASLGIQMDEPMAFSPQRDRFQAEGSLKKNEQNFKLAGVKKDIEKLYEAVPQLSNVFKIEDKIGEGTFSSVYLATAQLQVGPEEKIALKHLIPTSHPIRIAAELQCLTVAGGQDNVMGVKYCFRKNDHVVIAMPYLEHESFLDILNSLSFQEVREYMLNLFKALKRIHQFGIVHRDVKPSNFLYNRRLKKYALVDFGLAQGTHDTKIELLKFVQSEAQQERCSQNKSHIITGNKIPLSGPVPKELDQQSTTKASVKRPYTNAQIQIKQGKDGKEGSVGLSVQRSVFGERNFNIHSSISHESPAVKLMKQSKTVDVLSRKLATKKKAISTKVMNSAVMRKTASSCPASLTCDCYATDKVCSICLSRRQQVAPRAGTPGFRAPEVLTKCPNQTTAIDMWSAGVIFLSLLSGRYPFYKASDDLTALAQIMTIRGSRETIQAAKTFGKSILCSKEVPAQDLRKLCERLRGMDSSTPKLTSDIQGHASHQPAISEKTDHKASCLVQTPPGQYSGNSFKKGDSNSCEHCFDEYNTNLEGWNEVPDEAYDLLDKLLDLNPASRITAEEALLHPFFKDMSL
T1 sequence (Q9UBU7 whole entry partner): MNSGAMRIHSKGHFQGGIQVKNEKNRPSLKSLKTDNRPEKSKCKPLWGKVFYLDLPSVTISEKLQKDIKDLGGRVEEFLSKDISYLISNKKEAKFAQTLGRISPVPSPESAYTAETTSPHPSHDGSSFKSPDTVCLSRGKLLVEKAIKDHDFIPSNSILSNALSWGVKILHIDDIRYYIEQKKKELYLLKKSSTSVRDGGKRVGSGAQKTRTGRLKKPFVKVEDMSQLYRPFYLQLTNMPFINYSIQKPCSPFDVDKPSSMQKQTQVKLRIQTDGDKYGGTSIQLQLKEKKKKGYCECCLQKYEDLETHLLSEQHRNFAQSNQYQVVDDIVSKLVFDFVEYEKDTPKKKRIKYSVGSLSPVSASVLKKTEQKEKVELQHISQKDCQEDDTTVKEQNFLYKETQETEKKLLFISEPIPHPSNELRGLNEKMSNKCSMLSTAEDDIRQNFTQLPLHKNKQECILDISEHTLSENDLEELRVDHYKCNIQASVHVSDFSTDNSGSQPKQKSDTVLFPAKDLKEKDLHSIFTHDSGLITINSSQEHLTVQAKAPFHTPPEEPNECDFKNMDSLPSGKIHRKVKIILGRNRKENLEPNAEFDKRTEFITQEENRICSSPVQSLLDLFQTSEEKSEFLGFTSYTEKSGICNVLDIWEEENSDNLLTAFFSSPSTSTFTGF

SMILES | Ki [nM]
O=C(N[C@H]1CC[C@H](Nc2cc(-c3c[nH]c4ncccc34)cc(Cl)n2)CC1)c1ccc(OC(F)(F)F)cc1 [Example 203, N-(trans-4-{[6-chloro-4-(1H-pyrrolo[2,3-b]pyridin-3-yl)pyridin-2-yl]-amino}cyclohexyl)-4-(trifluoromethoxy)benzamide] | 10 to 100
COc1cc(N2CCC(N3CCN(C)CC3)CC2)ccc1Nc1cc(-c2c[nH]c3ncccc23)cc(Cl)n1 [Example 206, 6-chloro-N-{2-methoxy-4-[4-(4-methylpiperazin-1-yl)piperidin-1-yl]phenyl}-4-(1H-pyrrolo[2,3-b]pyridin-3-yl)pyridin-2-amine] | < 10
O=C(N[C@H]1CC[C@H](Nc2cc(-c3c[nH]c4ncccc34)cc(Cl)n2)CC1)C1CN(Cc2ccc(Cl)cc2)C1 [Example 207, 1-(4-chlorobenzyl)-N-(trans-4-{[6-chloro-4-(1H-pyrrolo[2,3-b]pyridin-3-yl)pyridin-2-yl]amino}cyclohexyl)azetidine-3-carboxamide] | < 10
C=CCNC(=O)NCCS(=O)(=O)N[C@H]1CC[C@H](Nc2cc(-c3c[nH]c4ncccc34)cc(Cl)n2)CC1 [Example 208, N-(trans-4-{[6-chloro-4-(1H-pyrrolo[2,3-b]pyridin-3-yl)pyridin-2-yl]amino}cyclohexyl)-2-[(prop-2-en-1-ylcarbamoyl)amino}ethanesulfonamide] | < 10
O=C(N[C@H]1CC[C@H](Nc2cc(-c3c[nH]c4ncccc34)cc(Cl)n2)CC1)C1CN(Cc2ccc(F)cc2F)C1 [Example 210, N-(trans-4-{[6-chloro-4-(1H-pyrrolo[2,3-b]pyridin-3-yl)pyridin-2-yl]amino}cyclohexyl)-1-(2,4-difluorobenzyl)azetidine-3-carboxamide] | < 10
OCCn1cc(-c2cnc3[nH]cc(-c4cc(Cl)nc(NC5CCCCC5)c4)c3c2)cn1 [Example 212, 2-(4-{3-[2-chloro-6-(cyclohexylamino)pyridin-4-yl]-1H-pyrrolo[2,3-b]pyridin-5-yl}-1H-pyrazol-1-yl)ethanol] | < 10
Clc1cc(-c2c[nH]c3ncc(-c4ccsc4)cc23)cc(NC2CCCCC2)n1 [Example 215, 6-chloro-N-cyclohexyl-4-[5-(thiophen-3-yl)-1H-pyrrolo[2,3-b]pyridin-3-yl]pyridin-2-amine] | 10 to 100
COc1cnc2[nH]cc(-c3cc(Cl)nc(N[C@H]4CC[C@H](NC(=O)C5CC5)CC4)c3)c2c1 [Example 216, N-(trans-4-{[6-chloro-4-(5-methoxy-1H-pyrrolo[2,3-b]pyridin-3-yl)pyridin-2-yl]amino}cyclohexyl)cyclopropanecarboxamide] | < 10
COc1cnc2[nH]cc(-c3cc(Cl)nc(N[C@H]4CC[C@H](NC(=O)C5CN(Cc6ccccc6)C5)CC4)c3)c2c1 [Example 217, 1-benzyl-N-(trans-4-{[6-chloro-4-(5-methoxy-1H-pyrrolo[2,3-b]pyridin-3-yl)pyridin-2-yl]amino}cyclohexyl)azetidine-3-carboxamide] | < 10
COc1cnc2[nH]cc(-c3cc(Cl)nc(N[C@H]4CC[C@H](NS(=O)(=O)C5CC5)CC4)c3)c2c1 [Example 218, N-(trans-4-{[6-chloro-4-(5-methoxy-1H-pyrrolo[2,3-b]pyridin-3-yl)pyridin-2-yl]amino}cyclohexyl)cyclopropanesulfonamide] | < 10
COc1cnc2[nH]cc(-c3cc(Cl)nc(N[C@H]4CC[C@H](NS(C)(=O)=O)CC4)c3)c2c1 [Example 220, N-(trans-4-{[6-chloro-4-(5-methoxy-1H-pyrrolo[2,3-b]pyridin-3-yl)pyridin-2-yl]amino}cyclohexyl)methanesulfonamide] | < 10
CN1CCN(Cc2cccc(-c3cnc4[nH]cc(-c5cc(Cl)nc(NC6CCCCC6)c5)c4c3)c2)CC1 [Example 221, 6-chloro-N-cyclohexyl-4-(5-{3-[(4-methylpiperazin-1-yl)methyl]phenyl}-1H-pyrrolo[2,3-b]pyridin-3-yl)pyridin-2-amine] | < 10
NS(=O)(=O)c1cccc(-c2cnc3[nH]cc(-c4cc(Cl)nc(NC5CCCCC5)c4)c3c2)c1 [Example 222, 3-{3-[2-chloro-6-(cyclohexylamino)pyridin-4-yl]-1H-pyrrolo[2,3-b]pyridin-5-yl}benzenesulfonamide] | < 10
NS(=O)(=O)c1ccc(-c2cnc3[nH]cc(-c4cc(Cl)nc(NC5CCCCC5)c4)c3c2)cc1 [Example 223, 4-{3-[2-chloro-6-(cyclohexylamino)pyridin-4-yl]-1H-pyrrolo[2,3-b]pyridin-5-yl}benzenesulfonamide] | < 10
Nc1cnc2[nH]cc(-c3cc(Cl)nc(NC4CCCCC4)c3)c2c1 [Example 225, 3-[2-chloro-6-(cyclohexylamino)pyridin-4-yl]-1H-pyrrolo[2,3-b]pyridin-5-amine] | < 10
CNCC(=O)N[C@H]1CC[C@H](Nc2cc(-c3c[nH]c4ncc(OC)cc34)cc(Cl)n2)CC1 [Example 227, N-(trans-4-{[6-chloro-4-(5-methoxy-1H-pyrrolo[2,3-b]pyridin-3-yl)pyridin-2-yl]amino}cyclohexyl)-N^2-methylglycinamide] | < 10
O=C(CN1CCN(c2ccncc2)CC1)N[C@H]1CC[C@H](Nc2cc(-c3c[nH]c4ncccc34)cc(Cl)n2)CC1 [Example 230, N-(trans-4-{[6-chloro-4-(1H-pyrrolo[2,3-b]pyridin-3-yl)pyridin-2-yl]amino}cyclohexyl)-2-[4-(pyridin-4-yl)piperazin-1-yl]acetamide] | < 10
O=C(CN1CCN(C2CCCCC2)CC1)N[C@H]1CC[C@H](Nc2cc(-c3c[nH]c4ncccc34)cc(Cl)n2)CC1 [Example 231, N-(trans-4-{[6-chloro-4-(1H-pyrrolo[2,3-b]pyridin-3-yl)pyridin-2-yl]amino}cyclohexyl)-2-(4-cyclohexylpiperazin-1-yl)acetamide] | < 10
CCCCN1CCN(CC(=O)N[C@H]2CC[C@H](Nc3cc(-c4c[nH]c5ncccc45)cc(Cl)n3)CC2)CC1 [Example 232, 2-(4-butylpiperazine-1-yl)-N-(trans-4-{[6-chloro-4-(1H-pyrrolo[2,3-b]pyridin-3-yl)pyridin-2-yl]amino}cyclohexyl)acetamide] | < 10
N#Cc1ccccc1N1CCN(CC(=O)N[C@H]2CC[C@H](Nc3cc(-c4c[nH]c5ncccc45)cc(Cl)n3)CC2)CC1 [Example 234, N-(trans-4-{[6-chloro-4-(1H-pyrrolo[2,3-b]pyridin-3-yl)pyridin-2-yl]amino}cyclohexyl)-2-[4-(2-cyanophenyl)piperazin-1-yl]acetamide] | < 10
O=C(O)c1cnc2[nH]cc(-c3cc(Cl)nc(NC4CCCCC4)c3)c2c1 [Example 235, 3-[2-chloro-6-(cyclohexylamino)pyridin-4-yl]-1H-pyrrolo[2,3-b]pyridine-5-carboxylic acid] | < 10

Now from value to compound:

Ki [nM] | SMILES
< 10 | Cc1cnc2[nH]cc(-c3cc(Cl)nc(NC4CCCCC4)c3)c2c1 [Example 204, 6-chloro-N-cyclohexyl-4-(5-methyl-1H-pyrrolo[2,3-b]pyridin-3-yl)pyridin-2-amine]
< 10 | Clc1cc(-c2c[nH]c3ncccc23)cc(Nc2ccccc2)n1 [Example 205, 6-chloro-N-phenyl-4-(1H-pyrrolo[2,3-b]pyridin-3-yl)pyridin-2-amine]
< 10 | O=C(N[C@H]1CC[C@H](Nc2cc(-c3c[nH]c4ncccc34)cc(Cl)n2)CC1)C1CN(Cc2cccnc2)C1 [Example 209, N-(trans-4-{[6-chloro-4-(1H-pyrrolo[2,3-b]pyridin-3-yl)pyridin-2-yl]amino}cyclohexyl)-1-(pyridin-3-ylmethyl)azetidine-3-carboxamide]
< 10 | Cn1ccc(CN2CC(C(=O)N[C@H]3CC[C@H](Nc4cc(-c5c[nH]c6ncccc56)cc(Cl)n4)CC3)C2)n1 [Example 211, N-(trans-4-{[6-chloro-4-(1H-pyrrolo[2,3-b]pyridin-3-yl)pyridin-2-yl]amino}cyclohexyl)-1-[(1-methyl-1H-pyrazol-3-yl)methyl]azetidine-3-carboxamide]
< 10 | COc1cnc2[nH]cc(-c3cc(Cl)nc(N[C@H]4CC[C@H](N)CC4)c3)c2c1 [Example 213, trans-N-[6-chloro-4-(5-methoxy-1H-pyrrolo[2,3-b]pyridin-3-yl)pyridin-2-yl]cyclohexane-1,4-diamine]
< 10 | Clc1cc(-c2c[nH]c3ncc(-c4cccnc4)cc23)cc(NC2CCCCC2)n1 [Example 214, 6-chloro-N-cyclohexyl-4-[5-(pyridin-3-yl)-1H-pyrrolo[2,3-b]pyridin-3-yl]pyridin-2-amine]
< 10 | CCOc1cnc2[nH]cc(-c3cc(Cl)nc(N[C@H]4CC[C@H](N)CC4)c3)c2c1 [Example 224, trans-N-[6-chloro-4-(5-ethoxy-1H-pyrrolo[2,3-b]pyridin-3-yl)pyridin-2-yl]cyclohexane-1,4-diamine]
< 10 | CC(=O)Nc1cnc2[nH]cc(-c3cc(Cl)nc(NC4CCCCC4)c3)c2c1 [Example 226, N-{3-[2-chloro-6-(cyclohexylamino)pyridin-4-yl]-1H-pyrrolo[2,3-b]pyridin-5-yl}acetamide]
< 10 | COc1cnc2[nH]cc(-c3cc(Cl)nc(N[C@H]4CC[C@H](NC(=O)C(C)C)CC4)c3)c2c1 [Example 228, N-(trans-4-{[6-chloro-4-(5-methoxy-1H-pyrrolo[2,3-b]pyridin-3-yl)pyridin-2-yl]amino}cyclohexyl)-2-methylpropanamide]
< 10 | O=C(CN1CCN(c2ccc(F)cc2)CC1)N[C@H]1CC[C@H](Nc2cc(-c3c[nH]c4ncccc34)cc(Cl)n2)CC1 [Example 229, N-(trans-4-{[6-chloro-4-(1H-pyrrolo[2,3-b]pyridin-3-yl)pyridin-2-yl]amino}cyclohexyl)-2-[4-(4-fluorophenyl)piperazin-1-yl]acetamide]
< 10 | O=C(CN1CCN(C(=O)c2ccco2)CC1)N[C@H]1CC[C@H](Nc2cc(-c3c[nH]c4ncccc34)cc(Cl)n2)CC1 [Example 233, N-(trans-4-{[6-chloro-4-(1H-pyrrolo[2,3-b]pyridin-3-yl)pyridin-2-yl]amino}cyclohexyl)-2-[4-(furan-2-ylcarbonyl)piperazin-1-yl]acetamide]
